Where two headings read alike, the source gives them in different places.

The test has as its target T1, Human TRPV3 (Homo sapiens, UniProt Q8NET8).
T1 construct: expressed in transfected cells; host or cells: CHO cells (G-418 selection)
T1 sequence (Q8NET8 1-790): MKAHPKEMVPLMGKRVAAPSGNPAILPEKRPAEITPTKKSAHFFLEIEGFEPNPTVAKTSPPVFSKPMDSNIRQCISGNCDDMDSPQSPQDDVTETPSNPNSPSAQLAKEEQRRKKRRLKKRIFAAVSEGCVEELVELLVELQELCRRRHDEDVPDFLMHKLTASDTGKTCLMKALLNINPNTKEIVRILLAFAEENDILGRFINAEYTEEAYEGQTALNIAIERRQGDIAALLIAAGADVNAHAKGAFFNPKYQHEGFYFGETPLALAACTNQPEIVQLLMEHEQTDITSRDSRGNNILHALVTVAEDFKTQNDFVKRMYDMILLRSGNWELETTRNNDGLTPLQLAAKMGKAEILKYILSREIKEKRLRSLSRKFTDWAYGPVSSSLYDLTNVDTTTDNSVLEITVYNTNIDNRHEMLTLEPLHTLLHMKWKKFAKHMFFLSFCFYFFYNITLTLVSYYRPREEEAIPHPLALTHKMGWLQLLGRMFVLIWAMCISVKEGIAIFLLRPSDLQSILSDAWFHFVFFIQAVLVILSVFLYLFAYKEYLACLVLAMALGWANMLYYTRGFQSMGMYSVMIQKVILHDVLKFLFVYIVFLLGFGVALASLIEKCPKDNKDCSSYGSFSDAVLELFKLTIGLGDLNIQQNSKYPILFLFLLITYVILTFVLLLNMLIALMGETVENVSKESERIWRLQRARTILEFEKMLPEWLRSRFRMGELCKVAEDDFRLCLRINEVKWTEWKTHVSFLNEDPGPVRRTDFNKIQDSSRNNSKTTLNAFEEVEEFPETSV
Put plainly: Screening for TRPV3 antagonist using the 45Calcium uptake assay (inhibition of 2-APB induced cellular uptake of radioactive calcium). The format is cell-based. The conditions noted are these: for inhibition at 1 µM / Percentage inhibition at 1.0 μM: 1.0 μM test compound; for inhibition at 1 µM: read-out: Percentage inhibition at 1.0 μM; for inhibition at 10 µM: read-out: Percentage inhibition at 10.0 μM; for IC50: class symbols. In outline:
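CHO cells stably expressing human TRPV3, preincubated 10 min with test compound, then 2-APB (500 μM final) plus 5 μCi/ml 45Ca2+ for 4 min in DMEM/F-12 with 1.8 mM CaCl2; 0.5% DMSO final. Lysate radioactivity by scintillation counting. IC50 by nonlinear regression of % maximal response; % inhibition at 1.0 and 10.0 μM.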

Where [1] appears, read: human TRPV3 expressing CHO cells, 2-APB 500 μM.
Where [2] appears, read: 10.0 μM test compound, human TRPV3 expressing CHO cells, 2-APB 500 μM.

On to `COc1cccc(/C=C/c2nc3sc(Cl)cn3c(=O)c2-c2ccc(C#N)cc2)c1OCC(C)(C)C` [Example 80, 4-{2-Chloro-7-[(E)-2-(2-(2,2-dimethylpropoxy)-3-methoxyphenyl)vinyl]-5-oxo-5H-[1,3]thiazolo[3,2-a]pyrimidin-6-yl}benzonitrile], for which, under setting [1], the inhibition at 1 µM stood at 69.1% and the concentration for half-maximal inhibition (IC50) is 0.5 to 1 µM. Moreover, the inhibition at 10 µM under setting [2] turned out to be 87.7%.
The like results for `COc1cccc(/C=C/c2nc3sc(Cl)cn3c(=O)c2-c2ccc(N(C)C)cc2)c1OCC(C)C` [Example 81, 2-Chloro-6-[4-(dimethylamino)phenyl]-7-[(E)-2-(2-isobutoxy-3-methoxyphenyl)vinyl]-5H-[1,3]thiazolo[3,2-a]pyrimidin-5-one] were, in that order, 64.3%, 0.25 to 0.5 µM and 78.5%.
For `COc1cccc(/C=C/c2nc3scc(C(F)(F)F)n3c(=O)c2-c2ccc(C#N)cc2)c1OCC(C)(C)C` [Example 82, 4-{7-[(E)-2-(3-Methoxy-2-neopentyloxyphenyl)-1-ethenyl]-5-oxo-3-(trifluoromethyl)-5H-[1,3]thiazolo[3,2-a]pyrimidin-6-yl}benzonitrile], the inhibition at 1 µM under setting [1] came out at 57.4%. In addition, the inhibition at 10 µM under setting [2] worked out at 70.3%.
For `COc1cccc(/C=C/c2nc3sc4ccccc4n3c(=O)c2-c2ccc(C#N)cc2)c1OCCCC#N` [Example 83, 4-(2-{(E)-2-[2-(3-Cyanopropoxy)-3-methoxyphenyl}-1-ethenyl}-4-oxo-4H-benzo[4,5]-[1,3]thiazolo-[3,2]pyrimidin-3-yl)benzonitrile], under setting [1], the “Percentage inhibition at 1.0 μM” value came to 23.6%. The “Percentage inhibition at 10.0 μM” value under setting [2] worked out at 57.1%.
Regarding `COCCOc1c(/C=C/c2nc3sc4ccccc4n3c(=O)c2-c2ccc(C#N)cc2)cccc1OC` [Example 84, 4-(2-{(E)-2-[3-Methoxy-2-(methoxyethoxy)phenyl}-1-ethenyl}-4-oxo-4H-benzo[4,5]-[1,3]thiazolo-[3,2]pyrimidin-3-yl)benzonitrile], under setting [1], the inhibition at 1 µM was 83.8% and the IC50 fell in the range of 0.25 to 0.5 µM. The inhibition at 10 µM under setting [2] worked out at 93.7%.
The like results for `CCOCCOc1c(/C=C/c2nc3sc4ccccc4n3c(=O)c2-c2ccc(C#N)cc2)cccc1OC` [Example 85] were, in that order, 81.8%, under 0.25 µM and 91.9%.
`COc1cccc(/C=C/c2nc3sc4ccccc4n3c(=O)c2-c2ccc(C#N)cc2)c1OCC1CC1` [Example 86]: the “Percentage inhibition at 1.0 μM” value under setting [1] came out at 45.5%. Also, the “Percentage inhibition at 10.0 μM” value under setting [2] worked out at 75.6%.
Consider `CCCCOc1c(/C=C/c2nc3sc4ccccc4n3c(=O)c2-c2ccc(C#N)cc2)cccc1OC` [Example 87], for which the “Percentage inhibition at 1.0 μM” value under setting [1] is 34.44%. For the same molecule, the “Percentage inhibition at 10.0 μM” value under setting [2] is listed as 60.79%.
The like results for `COc1cccc(/C=C/c2nc3sc4ccccc4n3c(=O)c2-c2ccc(C#N)cc2)c1OCCC(C)C` [Example 88, 4-{2-[(E)-2-[2-(3-Methylbutoxy-3-methoxy]phenyl}-1-ethenyl]-4-oxo-4H-benzo[4,5]-[1,3]thiazolo-[3,2]pyrimidin-3-yl)benzonitrile] were, in that order, 32.87% and 51.88%.
The like results for `COc1cccc(/C=C/c2nc3sc4ccccc4n3c(=O)c2-c2ccc(C#N)cc2)c1OCC1CCC1` [Example 89] were, in that order, 26.90% and 57.53%.
`COc1cccc(/C=C/c2nc3sc4ccccc4n3c(=O)c2-c2ccc(C#N)cc2)c1OCc1ccccn1` [Example 90]: the “Percentage inhibition at 10.0 μM” value stood at 81.57%. For the same molecule, the “Percentage inhibition at 1.0 μM” value under setting [1] is listed as 51.24%.
With `COc1cccc(/C=C/c2nc3sc4ccccc4n3c(=O)c2-c2ccc(C(F)(F)F)cc2)c1OCC1CC1` [Example 91, 2-{(E)-2-[(2-Cyclopropylmethoxy)-3-methoxyphenyl]-1-ethenyl}-3-(4-trifluoromethyl-phenyl)-4H-benzo[4,5][1,3]thiazolo-[3,2-a]pyrimidin-4-one], the “Percentage inhibition at 1.0 μM” value under setting [1] is 4.98%. In addition, the “Percentage inhibition at 10.0 μM” value under setting [2] is 19.85%.
As to `COCCOc1c(/C=C/c2nc3sc4ccccc4n3c(=O)c2-c2ccc(C(F)(F)F)cc2)cccc1OC` [Example 92, 2-{(E)-2-[(2-Methoxyethoxy)-3-methoxyphenyl]-1-ethenyl}-3-(4-trifluoromethylphenyl)-4H-benzo[4,5][1,3]thiazolo-[3,2-a]pyrimidin-4-one], under setting [1], the “Percentage inhibition at 1.0 μM” value is 23.11%. Also, under setting [2], the “Percentage inhibition at 10.0 μM” value was 47.48%.
Turning to `CCOCCOc1c(/C=C/c2nc3sc4ccccc4n3c(=O)c2-c2ccc(C(F)(F)F)cc2)cccc1OC` [Example 93, 2-{(E)-2-[(2-Ethoxyethoxy)-3-methoxyphenyl]-1-ethenyl}-3-(4-trifluoromethyl-phenyl)-4H-benzo[4,5][1,3]thiazolo-[3,2-a]pyrimidin-4-one], the “Percentage inhibition at 1.0 μM” value under setting [1] is on record as 6.53%. For the same molecule, the “Percentage inhibition at 10.0 μM” value under setting [2] stood at 40.18%.
The like results for `COc1cc(/C=C/c2nc3sc4ccccc4n3c(=O)c2-c2ccc(C(F)(F)F)cc2)ccc1OCCCC#N` [Example 94, 2-{(E)-2-[(3-Cyanopropoxy-3-methoxy)phenyl]-1-ethenyl}-3-(4-trifluoromethyl-phenyl)-4H-benzo[4,5][1,3]thiazolo-[3,2-a]pyrimidin-4-one] were, in that order, 5.84% and 10.03%.
Take `COc1cccc(/C=C/c2nc3sc4ccccc4n3c(=O)c2-c2ccc(OC(F)(F)F)cc2)c1OCC1CC1` [Example 95]: the inhibition at 1 µM under setting [1] is 10.9%. For the same molecule, the inhibition at 10 µM under setting [2] was 23.7%.
The like results for `COCCOc1c(/C=C/c2nc3sc4ccccc4n3c(=O)c2-c2ccc(OC(F)(F)F)cc2)cccc1OC` [Example 96, 2-{(E)-2-[3-Methoxy-2-(2-methoxyethoxy)phenyl]-1-ethenyl}-3-(4-trifluoromethoxy-phenyl)-4H-benzo[4,5][1,3]thiazolo-[3,2-a]pyrimidin-4-one] were, in that order, 24.8% and 67.7%.
On to `CCOCCOc1c(/C=C/c2nc3sc4ccccc4n3c(=O)c2-c2ccc(OC(F)(F)F)cc2)cccc1OC` [Example 97, 2-{(E)-2-[(2-Ethoxyethoxy)-3-methoxyphenyl]-1-ethenyl}-3-(4-trifluoromethoxy-phenyl)-4H-benzo[4,5][1,3]thiazolo-[3,2-a]pyrimidin-4-one], for which the inhibition at 1 µM under setting [1] worked out at 20.2%. Moreover, the inhibition at 10 µM under setting [2] stood at 39.3%.
The like results for `COc1cccc(/C=C/c2nc3n(C)c4ccccc4n3c(=O)c2-c2ccc(OC(F)(F)F)cc2)c1OCC1CC1` [Example 98, 2-[(E)-2-(2-Cyclopropylmethoxy-3-methoxyphenyl)vinyl]-3-(4-trifluoromethoxyphenyl)-10-methylpyrimido[1,2-a]benzimidazol-4(10H)-one] were, in that order, 23% and 30%.

The values above are taken from patent US8119647B2, “Fused pyrimidineone compounds as TRPV3 modulators” (Glenmark Pharmaceuticals S.A., priority 2008, dated 2012).
